Reference: US20060235036A1, “Vanilloid receptor ligands and their use in treatments” (priority 2005, published 2006)
Counter-ions that a name gives are not always drawn.

Biological target: T1, human VR1 (Homo sapiens, UniProt Q8NER1)
T1 construct: expressed in transfected cells
Assay: Human VR1 Capsaicin Antagonist Assay (45Ca2+ uptake, CHO cells stably expressing human VR1)
Assay type: cell-based
Settings: capsaicin stimulus, Calcium-45 uptake
Method: Compounds may be assayed using Chinese Hamster Ovary cell lines stably expressing either human VR1 or rat VR1 under a CMV promoter. Cells can be cultured in Growth Medium, routinely passaged at 70% confluency using trypsin and plated in the assay plate 24 hours prior to compound evaluation. Possible Growth Medium: • DMEM, high glucose (Gibco 11965-084). • 10% Dialyzed serum (Hyclone SH30079.03). • 1× Non-Essential Amino Acids (Gibco 11140-050). • 1× Glutamine-Pen-Strep (Gibco 10378-016). • Geneticin, 450 μg/mL (Gibco 10131-035). Compounds can be diluted in 100% DMSO and tested for activity over several log units of concentration [40 μM-2 pM]. Compounds may be further diluted in HBSS buffer (pH 7.4) 0.1 mg/mL BSA, prior to evaluation. Final DMSO concentration in assay would be 0.5%. Each assay plate can be controlled with a buffer only and a known antagonist compound (either capsazepine or one of the described VR1 antagonists). Activation of VR1 can be achieved in these cellular assays using either a capsaicin stimulus (ranging from 0.1-1 μM) or by an acid stimulus (addition of 30 mM Hepes/Mes buffered at pH 4.1). Compounds may also tested in an assay format to evaluate their agonist properties at VR1. • Capsaicin Antagonist Assay: Compounds may be pre-incubated with cells (expressing either human or rat VR1) for 2 minutes prior to addition of Calcium-45 and Capsaicin and then left for an additional 2 minutes prior to compound washout. Capsaicin (0.5 […]) can be added in HAM's F12, 0.1 mg/mL BSA, 15 mM Hepes at pH 7.4. Final ^45Ca (Amersham CES3-2 mCi) at 10 μCi/mL. • Acid Antagonist Assay: Compounds can be pre-incubated with cells (expressing either human or rat VR1) for 2 minutes prior to addition of Calcium-45 in 30 mM Hepes/Mes buffer (Final Assay pH 5) and then left for an additional 2 minutes prior to compound washout. Final ^45Ca (Amersham CES3-2 mCi) at 10 μCi/mL. • Agonist Assay: Compounds can be incubated with cells (expressing either human or rat VR1) for 2 minutes in the presence of Calcium-45 prior to compound washout. Final ^45Ca (Amersham CES3-2 mCi) at 10 μCi/mL. • Compound Washout and Analysis: Assay plates can be washed using an ELX405 plate washer (Bio-Tek Instruments Inc.) immediately after functional assay. One can wash 3× with PBS Mg2^+/Ca^2+ free, 0.1 mg/mL BSA, aspirating between washes. Plates may be read using a MicroBeta Jet (Wallac Inc.). Compound activity may then calculated using appropriate computational algorithms.

T1 sequence (Q8NER1 whole entry): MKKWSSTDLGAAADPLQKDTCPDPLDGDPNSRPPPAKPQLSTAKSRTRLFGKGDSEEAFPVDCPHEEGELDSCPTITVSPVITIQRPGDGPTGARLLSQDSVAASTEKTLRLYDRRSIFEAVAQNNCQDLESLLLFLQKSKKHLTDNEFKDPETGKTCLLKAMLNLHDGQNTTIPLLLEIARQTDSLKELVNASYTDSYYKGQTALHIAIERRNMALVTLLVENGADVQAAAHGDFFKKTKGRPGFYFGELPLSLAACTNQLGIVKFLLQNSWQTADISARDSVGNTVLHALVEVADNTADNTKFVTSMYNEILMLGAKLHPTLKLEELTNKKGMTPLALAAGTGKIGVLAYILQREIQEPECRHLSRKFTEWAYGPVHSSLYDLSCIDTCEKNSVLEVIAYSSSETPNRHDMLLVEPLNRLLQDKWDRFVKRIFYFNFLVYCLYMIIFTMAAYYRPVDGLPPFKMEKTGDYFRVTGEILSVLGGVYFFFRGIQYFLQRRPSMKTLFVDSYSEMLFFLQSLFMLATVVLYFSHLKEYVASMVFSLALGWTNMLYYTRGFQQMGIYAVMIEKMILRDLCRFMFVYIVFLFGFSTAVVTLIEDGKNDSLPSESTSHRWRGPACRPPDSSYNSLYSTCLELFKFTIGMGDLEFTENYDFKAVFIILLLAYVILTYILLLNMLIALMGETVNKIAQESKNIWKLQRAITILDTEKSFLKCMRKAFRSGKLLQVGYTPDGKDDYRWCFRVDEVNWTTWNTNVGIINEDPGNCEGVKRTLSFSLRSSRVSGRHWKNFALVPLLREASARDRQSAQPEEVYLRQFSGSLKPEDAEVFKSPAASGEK

SMILES | IC50 [nM]
CC(C)CN1CCCCC1CNc1nc(C(F)(F)F)ccc1-c1cc(Nc2cccc3c2CC(O)CC3)ncn1 (mixture of isomers) [Example 1, (2R,S)-8-(6-(2-(((2R,S)-1-Isobutylpiperidin-2-yl)methylamino)-6-(trifluoro-methyl)pyridin-3-yl)pyrimidin-4-ylamino)-1,2,3,4-tetrahydronaphthalen-2-ol hydrochloride] | < 100
CC(C)(C)OC(=O)N1CCC[C@H]1C(=O)Nc1cc(C(F)(F)F)ccc1-c1cc(Nc2cccc3c2C[C@@H](O)CC3)ncn1 (mixture of isomers) [Example 2, (2S)-tert-Butyl 2-((2-(6-((7S)-7-hydroxy-5,6,7,8-tetrahydro-naphthalen-1-ylamino)pyrimidin-4-yl)-5-(trifluoromethyl)phenyl)-carbamoyl)-pyrrolidine-1-carboxylate and (2S)-tert-Butyl 2-((2-(6-((7S)-7-hydroxy-5,6,7,8-tetrahydro-naphthalen-1-ylamino)pyrimidin-4-yl)-5-(trifluoromethyl)phenyl)-carbamoyl)-pyrrolidine-1-carboxylate] | < 100
CC(C)N1CCC[C@H]1C(=O)Nc1cc(C(F)(F)F)ccc1-c1cc(Nc2cccc3c2C[C@@H](O)CC3)ncn1 (mixture of isomers) [Example 3, (2S)—N-(2-(6-(7S)-7-Hydroxy-5,6,7,8-tetrahydronaphthalen-1-ylamino)pyrimidin-4-yl)-5-(trifluoromethyl)phenyl)-1-isopropylpyrrolidine-2-carboxamide hydrochloride and (2S)—N-(2-(6-(7R)-7-Hydroxy-5,6,7,8-tetrahydro-naphthalen-1-ylamino)pyrimidin-4-yl)-5-(trifluoromethyl)phenyl)-1-isopropylpyrrolidine-2-carboxamide hydrochloride] | < 100
CC(C)N1CCC[C@H]1C(=O)Nc1cc(C(F)(F)F)ccc1-c1cc(Nc2cccc3c2C[C@H](O)CC3)ncn1 (mixture of isomers) [Example 3, (2S)—N-(2-(6-(7S)-7-Hydroxy-5,6,7,8-tetrahydronaphthalen-1-ylamino)pyrimidin-4-yl)-5-(trifluoromethyl)phenyl)-1-isopropylpyrrolidine-2-carboxamide hydrochloride and (2S)—N-(2-(6-(7R)-7-Hydroxy-5,6,7,8-tetrahydro-naphthalen-1-ylamino)pyrimidin-4-yl)-5-(trifluoromethyl)phenyl)-1-isopropylpyrrolidine-2-carboxamide hydrochloride] | < 100
CC1CC[C@@H](C(=O)Nc2cc(C(F)(F)F)ccc2-c2cc(Nc3cccc4c3CC(O)CC4)ncn2)N1 (mixture of isomers) [Example 4, (2S, 5R,S, 7R,S)—N-(2-(6-(7-Hydroxy-5,6,7,8-tetrahydronaphthalen-1-ylamino)pyrimidin-4-yl)-5-(trifluoromethyl)phenyl)-5-methylpyrrolidine-2-carboxamide hydrochloride] | < 100
CC(C)N1C(C)CC[C@H]1C(=O)Nc1cc(C(F)(F)F)ccc1-c1cc(Nc2cccc3c2CC(O)CC3)ncn1 (mixture of isomers) [Example 5, (2S, 5R,S, 7R,S)—N-(2-(6-(7-Hydroxy-5,6,7,8-tetrahydronaphthalen-1-ylamino)pyrimidin-4-yl)-5-(trifluoromethyl)phenyl)-1-isopropyl-5-methylpyrrolidine-2-carboxamide hydrochloride] | < 100
CC(C)CN1C(C)CC[C@H]1C(=O)Nc1cc(C(F)(F)F)ccc1-c1cc(Nc2cccc3c2CC(O)CC3)ncn1 (mixture of isomers) [Example 6, (2S, 5R,S, 7R,S)—N-(2-(6-(7-Hydroxy-5,6,7,8-tetrahydronaphthalen-1-ylamino)pyrimidin-4-yl)-5-(trifluoromethyl)phenyl)-1-isobutyl-5-methylpyrrolidine-2-carboxamide hydrochloride] | < 100
